# Measured values reported in article PMC3089604 (PLoS ONE, 2011).
# Like-named read-outs stand apart in the source and are kept apart here.
# Key:
# recombinant human DYRK1A = target: T1, recombinant human DYRK1A (Homo sapiens, UniProt Q13627); test: In vitro kinase assay: DYRK1A catalyzed direct phosphorylation of recombinant tau on serine 396 (western); format: biochemical; conditions: for IC50: recombinant DYRK1A + 4R2N tau, 1 mM ATP
# T1 construct: purchased Invitrogen
# DYRK1A = tested on: DYRK1A; design: method as in PMID 17850214; conditions: synthetic peptide substrate; read-out: IC50 against DYRK1A; cited from earlier work
# [1] = alamar Blue viability (toxicity) assay; format: cell-based; conditions: human; H4 neuroglioma cells, drug renewed every 24 h for four days; read-out: IC50 for viability (concentration resulting in 50% cell viability)
# Procedure: Cells undergoing any treatment, including β-carboline derivative dosing and siRNA treatment, were maintained in Dulbecco's Modified Eagle Medium (Invitrogen) supplemented with 10% fetal bovine serum (Invitrogen) and 2 mM L-Glutamine (Invitrogen). Viability assays were performed using a 96-well pate format. Metabolic activity was measured 12 hours after the addition of 10% alamar Blue (Invitrogen) directly to attached cells in full medium. This assay was based on the ability of metabolically active cells to convert alamar Blue reagent into a fluorescent signal proportional to innate metabolic activity. Once the ideal IC50 value for viability was identified, effects on multiple forms of tau were investigated after treating with the β-carbolines indicated in Table S1 using the larger 6 well plate format. For both the viability assay and cell culture tau assays, cell culture media was removed and cells were treated with freshly made drug in new media every 24 hours for four days. For cell culture tau assays, protein lysates were prepared after 96 hours of treatment. All compounds were solubilized in dimethylsulfoxide (DMSO), diluted in growth medium to their respective 0.01 µM, 0.1 µM, 1 µM and 10 µM final working dilutions and added directly to cultured cells. The final DMSO percentage in culture for all compounds and concentrations tested was 0.1%. […]
# [2] = tested on: tau phosphorylation in 4R0N tau overexpressing H4 neuroglioma cells; test: Cell culture tau assay: western for total and phosphorylated tau after 96 h compound treatment; format: cell-based; conditions: for 12E8 % Control pTau/Total / pS396 % Control pTau/Total / pT231 % Control pTau/Total: normalized to total tau
# Procedure: 4R0N tau overexpressing H4 neuroglioma cells were maintained in Dulbecco's Modified Eagle Medium (Invitrogen) supplemented with 10% fetal bovine serum (Invitrogen), 1% penicillin-streptomycin, geneticin (0.25 mg/ml), and 2 mM L-Glutamine (Invitrogen). Cells were maintained by splitting 1∶10 at 90% confluency. Prior to any experimentation, cells were 70–75% confluent to ensure cells were in their active growth phase. To test effects of DYRK1A knockdown on tau phosphorylation, cells were transfected with DYRK1A siRNA. Prior to treating cells with DYRK1A siRNA, siRNA was first complexed with siLentfect lipid transfection reagent (Bio-Rad) and reduced serum medium (Invitrogen) using a 6 well plate format. The final effective siRNA molarity used was 22.85 nM per well. Cells were grown for 96 hours at 37°C, 5% CO2. Cell lysates were prepared using the Complete Lysis-M, EDTA-free kit (Roche Applied Science) and total protein concentration was quantified using the BCA protein assay (Pierce). Westerns for the multiple forms of tau were performed as described below.
# For all cell-based experiments, including siRNA treatments and compound treatments, cells were treated for 96 hours at 37°C, with 5% CO2. Cell lysates were then prepared using the Complete Lysis-M, EDTA-free kit (Roche Applied Science) supplemented with phosphatase inhibitor cocktails 1 and 2 (Sigma). Lysates were quantified using the BCA protein assay (Pierce). Protein from lysates (30 µg total protein per lane) was separated on SDS-PAGE gels and transferred to nitrocellulose membrane. Membranes were blocked in 5% blocking solution for one hour at room temperature (RT). Blocking buffer solution used for detection of non phosphorylated protein contained 5% Non-fat dry milk in 1×-TBS-T (50 mM Tris-HCl pH 7.4, 137 mM […], 2.7 mM KCl, 0.1% Tween). For detection of phosphorylated protein, blocking buffer solution contained 5% Bovine Serum Albumin in 1× TBS-T. Membranes were probed with primary antibody (various dilutions depending on the epitope – see below) in blocking buffer overnight at 4°C on a rocker. Membranes were subsequently washed with 1× TBS-T and probed with secondary antibody in blocking buffer for forty-five minutes using a 1∶25,000 dilution of HRP-GAM or HRP-GAR (Jackson Immunoresearch), depending on the species (mouse or rabbit) in which the primary antibodies were raised. Following incubation with secondary antibody, membranes were washed in 1× TBS-T and developed with Super Signal West Femto Maximum Sensitivity Substrate Kit ([…]) and digitally imaged. Protein band signal saturation was assessed before any further analysis of multiple forms of tau. Alpha Innotech Fluoro Chem SF imaging software verifies degrees of saturation when signal intensity is beyond the dynamic range (which is from 0–65,535). Protein band signal intensities used for quantification were within the instrument's dynamic range.
# To test multiple primary antibodies, membranes were stripped for 15 minutes at RT using ReBlot Plus Mild Antibody Stripping Solution (Millipore). Membranes were then washed for 5 minutes in 1× TBS-T and blocked for one hour in 5% blocking solution at RT. For verification of protein loading, membranes were reprobed overnight at 4°C with an anti-Tubulin primary antibody (1∶1000 dilution; Cell Signaling). Primary antibodies used for detection included anti-tau (1∶2000 dilution; Dako), 12E8 tau (1∶7500 dilution; Peter Seubert, Elan Pharmaceuticals), pT231 tau (1∶1000 dilution; Abcam), pS396 tau (1∶5000 dilution; Abcam), and anti-DYRK1A (1∶500 dilution; Santa Cruz).
# Cells undergoing any treatment, including β-carboline derivative dosing and siRNA treatment, were maintained in Dulbecco's Modified Eagle Medium (Invitrogen) supplemented with 10% fetal bovine serum (Invitrogen) and 2 mM L-Glutamine (Invitrogen). Viability assays were performed using a 96-well pate format. […]
# MAO-A = tested on: MAO-A; design: method as in PMID 18980841; conditions: read-out: IC50 against MAO-A; cited from earlier work
# [3] = 30 min 30C, read-out: IC50 for inhibition of DYRK1A dependent tau phosphorylation at serine 396 (pS396)
# [4] = read-out: IC50 for inhibition of DYRK1A dependent tau phosphorylation at serine 396
compound,measurement,setting,value
"Cc1nccc2c1[nH]c1ccccc12 [Harmane, harmane]",IC50,recombinant human DYRK1A; [3],15 µM
COc1ccc2c(c1)[nH]c1c(C)nccc12 [Harmine],IC50,DYRK1A,[…]
same,IC50 at 4 days,[1],12 µM
same,12E8 (pS262/pS356) tau % Control,"[2]; 8 µM, 96 h, H4-tau cells",32 ± 7 % Control
same,Total Tau % Control,"[2]; 8 µM, 96 h, H4-tau cells",55 ± 9 % Control
same,pS396 tau % Control,"[2]; 8 µM, 96 h, H4-tau cells",49 ± 8 % Control
same,pT231 tau % Control,"[2]; 8 µM, 96 h, H4-tau cells",24 ± 6 % Control
same,12E8 % Control pTau/Total,"[2]; 8 µM, 96 h",58 ± 6 % Control
same,pS396 % Control pTau/Total,"[2]; 8 µM, 96 h",89 ± 7 % Control
same,pT231 % Control pTau/Total,"[2]; 8 µM, 96 h",44 ± 5 % Control
same,12E8 % Control pTau/Total,"[2]; 8 µM, 96 h, listed as harmine",58 % Control
same,pT231 % Control pTau/Total,"[2]; 8 µM, 96 h, listed as harmine",44 % Control
"COc1ccc2c3c([nH]c2c1)C(C)=NCC3 [Harmaline, harmaline]",IC50,recombinant human DYRK1A; [3],9 µM
CCn1c2cc(OC)ccc2c2ccnc(C)c21 [9-ethylharmine],Reduction of IC50 relative to harmine,"recombinant human DYRK1A; pS396 in vitro phosphorylation, ethyl group on N-9 vs harmine",~2 fold
same,IC50,recombinant human DYRK1A; [4],0.4 µM
same,Concentration at which tau levels were significantly reduced (p<0.05),"[2]; H4-tau cells, 96 h",1 µM
"c1ccc2c(c1)[nH]c1cnccc12 [Norharmane, norharmane]",IC50,recombinant human DYRK1A; [3],45 µM
"Cc1[nH]ccc2c1[nH]c1cc(=O)ccc12 [Harmol, harmol]",IC50,recombinant human DYRK1A; [4],0.09 µM
O=C(NCCN1CCOCC1)c1ccc(Cl)cc1 [Moclobemide],IC50,MAO-A,3.9 µM
same,12E8 (pS262/pS356) tau % Control,"[2]; 500 µM (highest concentration), 96 h",116 ± 10 % Control
same,Total Tau % Control,"[2]; 500 µM, 96 h",103 ± 7 % Control
same,pS396 tau % Control,"[2]; 500 µM, 96 h",98 ± 9 % Control
same,pT231 tau % Control,"[2]; 500 µM, 96 h",118 ± 13 % Control
same,12E8 % Control pTau/Total,[2]; 500 µM,112 ± 8 % Control
same,pS396 % Control pTau/Total,[2]; 500 µM,95 ± 9 % Control
same,pT231 % Control pTau/Total,[2]; 500 µM,114 ± 12 % Control
same,Effect on levels of total tau or specific phosphorylated forms of tau,[2]; doses up to 500 µM,did not reduce
